# Patent US20220000765A1, “METHODS AND COMPOSITION FOR TREATING MICROBIAL INFECTIONS” (UNIVERSITY OF LOUISVILLE RESEARCH FOUNDATION, INC., priority 2018, published 2022)
# Where two headings read alike, the source gives them in different places.
# Columns and labels:
# HIV-1 [1] = settings: for interaction with Q-GRFT against HIV-1: in free and encapsulated forms
# [2] = Met78Gln variant versus wild-type GRFT; cited from earlier work
# HSV-2 [3] = assay: In vitro HSV-2 plaque assay in Vero E6 cells (GRFT fibers, Example 5); type: cell-based, HSV-2 (4674); settings: eluates of 10% w/w GRFT fibers; 1 hr prior to infection
# Procedure: To conduct HSV-2 plaque assays, Vero E6 cells and HSV-2 (4674) were kindly provided by Dr. Kenneth Palmer from the University of Louisville.
# HSV-2 plaque assays were conducted to evaluate the in vitro efficacy of 10% w/w GRFT fibers against HSV-2 infection as previously described. Briefly, Vero E6 cells were seeded at 600,000 cells/well in a 6-well flat bottom plate (50% confluence) and grown for 24 hr to confluence. Prior to cell infection, 10% w/w GRFT fibers (30 mg) were dissolved in 20 mL complete plating media (1% FBS MEM). Once the cells were fully confluent, the growth media was removed and replaced with 2 mL of GRFT fiber eluate dilutions, followed by HSV-2 infection (3,000 PFU per well) 1 hr later. Free GRFT (2,000 μg/mL), corresponding to the concentration necessary to provide complete HSV-2 inhibition, was used as a positive control for inhibition, in addition to untreated/uninfected cells. Untreated/infected cells, were used as a negative control of inhibition.
# Subsequent to HSV-2 infection, plates were incubated for 48 hr at 37° C., all media was removed, and cells were fixed with 1.5 mL methanol for 10 min. […] Finally, plates were washed with Milli-Q water, and plaques were counted after drying. […] Samples were analyzed in triplicate, and GraphPad Prism software was used to determine and compare the IC50 values of GRFT fibers to free GRFT.
# HSV-2 [4] = assay: In vivo HSV-2 efficacy, murine model of lethal HSV-2 infection (GRFT NPs and NP-EFs, Example 4); design: species or system BALB/c mice
# Procedure: All in vivo experiments were approved by the University of Louisville's Institutional Animal Care and Use Committee (IACUC-17135) prior to testing. […] For these studies, mice were subcutaneously injected with 3 mg Depo-Provera (Revive, Madison, N.J.) 5 days prior to vehicle administration to induce the diestrous stage of their cycle. All materials administered to mice were UV-sterilized for 15 s prior to use. […] Untreated/uninfected mice and mice treated with 20 μg free GRFT (20 μL of 1,000 μg/mL) served as negative controls of infection, while untreated/infected mice served as a positive control for infection. Blank mPEG-PLGA nanoparticles were administered as an additional control group in efficacy studies.
# HSV-2 [5] = assay: In vivo efficacy against a lethal dose of HSV-2 infection (GRFT fibers, Example 5); design: species or system BALB/c mice
# Procedure: All in vivo experimental procedures were approved by the University of Louisville's Institutional Animal Care and Use Committee (IACUC 17135) prior to testing. All animal studies were conducted using 5-week-old female BALB/c mice (Jackson Laboratory, Bar Harbor, Me.) to evaluate the efficacy and safety of GRFT fibers. For efficacy studies, mice were administered either blank or GRFT fibers (5 mg) that were UV-sterilized for 15 s. Mice were subcutaneously injected with 3 mg Depo-Provera (Revive, Madison, N.J.) to induce the diestrous stage of their cycle, 5 days prior to fiber administration.
# To determine the efficacy of GRFT fibers against HSV-2 infection, mice were administered a single dose of either GRFT PEO, PVA, or PVP fibers, or control groups (n=20). Twenty-four hours after fiber administration, mice were challenged with HSV-2 (20 μL, LD90 5,000 PFU). Untreated/infected mice were used as positive controls for infection, while untreated/uninfected mice and infected mice treated with free GRFT (20 μL, of 1,000 μg/mL, 20 μg GRFT) served as negative controls. […] Blank PEO fibers were administered as an additional control group in efficacy studies. Mice were monitored daily for 14 days after HSV-2 challenge using an established 4-point scale to monitor the progression of viral infection. Each day, mice were weighed and examined for signs of neurological and epithelial damage. […]
# HIV-1 [6] = settings: NPs or eluates from 20% w/w NP-EF composites
# Procedure: TZM-bl cells, obtained from the National Institutes of Health AIDS Research and Reference Reagent Program (ARRRP), are engineered HeLa cells that express CD4, CCR5 and CXCR4 receptors, and were used to assess in vitro HIV-1 infectivity. TZM-bl cells are highly permissive to infection by most HIV-1 and pseudovirus strains, and contain HIV-activated Tat-driven luciferase, allowing for precise quantification of infection. TZM-bl cells were cultured in Dulbecco's Modified Eagle medium (DMEM) containing 10% fetal bovine serum (FBS), 25 mM HEPES, and 50 μg/mL gentamicin (Thermo Fisher). […]
# HIV inhibition was determined as a function of reduction in luciferase reporter gene expression after a single round of infection with pseudotyped HIV in TZM-bl cells. The optimal virus dilution (1:16) was established to yield ≥96,800 relative luminescence units (RLUs). […]
# After 48 hr, 100 μL of culture medium was removed from each well. Luminescence was measured using the Bright-Glo luciferase assay (Promega Corporation, Madison, Wis.) by adding 100 μL Bright-Glo reagent solution to each well for 5 min and recording relative luminescence units (RLUs, Synergy HT reader, BioTek). […]
# HIV-1 [7] = settings: eluates of 1% w/w GRFT fibers
# Source text: TZM-bl cells, obtained from the National Institutes of Health (NIH) AIDS Research and Reference Reagent Program (ARRRP), were used to assess in vitro HIV-1 infectivity. TZM-bl cells are engineered HeLa cells that express CD4, CCR5 and CXCR4 receptors and contain a Tat-driven luciferase gene, which is activated by HIV-1 infection and permits sensitive and accurate measurements of infection. TZM-bl cells are highly permissive to infection by most strains of HIV and molecularly cloned Env-pseudotyped viruses. TZM-bl cells were cultured in DMEM containing 10% FBS, 25 mM HEPES, and 50 μg/mL gentamicin. […]
# The antiviral activity of GRFT fibers against HIV-1 was measured using an in vitro HIV-1 pseudovirus inhibition assay. As previously described, HIV-1 inhibition was determined as a function of reduction in luciferase reporter gene expression after a single round of infection in TZM-bl cells. The optimal virus dilution was established prior to the experiments to yield 100,000 relative luminescence units (RLUs). […]
# After 48 hr, 100 μL, culture medium was carefully removed from each well. Luminescence was measured using the Bright-Glo luciferase assay system (Promega Corporation, Madison, Wis.) by adding 100 μL, Bright-Glo reagent solution to each well for 5 min. Plates were read via luminescence by the Synergy HT reader (BioTek). […]
# Gardnerella vaginalis = assay: Probiotic - Gv liquid co-culture; type: cell-based; settings: Example 2; free probiotic (10e7 or 10e8), prebiotic and Gv; plated after 4 and 24 hours
# Procedure: Bacteria loading, viability, and stability were tested by CFU count, BacLight live/dead assay, and fluorescence microscopy. La viability and stability were evaluated at −20° C., 4° C., and 25° C. by counting colony forming units (CFUs). To determine the ability of probiotic EFs to decrease Gv viability, a La EF-Gv co-culture was assessed.
# Bacteria were co-cultured in media using the following experimental design (FIG. 16A). The probiotic (L. acidophilus (La) or L. crispatus (Lcr)), the prebiotic, and the Gv were combined for bacterial cell co-culture experiments. Each tube was serially diluted and plated after 4 (FIG. 16B) and 24 (FIG. 16C) hours growth.
compound,measurement,setting,value
free Q-GRFT: oxidation-resistant variant of GRFT in which the Met at position 78 was replaced by a Gln,fold lowering of IC50 of free Q-GRFT,"HIV-1 [1]; in combination with the free ARVs (TFV, RAL, DAP)",up to 6 fold
same,susceptibility to oxidation,[2],no susceptibility to oxidation
"C[C@H](Cn1cnc2c(N)ncnc21)OCP(=O)(O)O [TFV, Tenofovir]",interaction with Q-GRFT against HIV-1,HIV-1 [1],synergistic interactions
"Cc1cc(C)c(Nc2ccnc(Nc3ccc(C#N)cc3)n2)c(C)c1 [DAP, Dapivirine]",interaction with Q-GRFT against HIV-1,HIV-1 [1],synergistic interactions
Griffithsin [free GRFT],1 Hr HSV-2 IC50,HSV-2 [3],25.5 ± 0.5 µg/mL
same,survivability,"HSV-2 [4]; intravaginal, single HSV-2 challenge LD90 5,000 PFU 24 hr later, 14 d post-infection, n=20",85%
same,onset of symptoms and progression of infection,"HSV-2 [4]; treated mice that became symptomatic, relative to untreated/infected control group",delayed onset of symptoms and a more gradual progression of infection
same,progression of infection,"HSV-2 [5]; mice that exhibited symptoms, relative to untreated/infected mice",decreased progression of infection
same,infected mice whose initial symptoms disappeared near the end of the study,HSV-2 [5]; of 20 mice,1 of 20
same,IC50 against HIV-1,HIV-1 [6]; administered to TZM-bl cells 1 hr prior to infection,0.0215 ± 0.0053 µg/mL
same,IC50 against HIV-1,HIV-1 [6]; administered to TZM-bl cells 24 hr prior to infection,0.0208 ± 0.0067 µg/mL
same,1 Hr HIV-1 IC50,HIV-1 [7]; 1 hr prior to infection,0.0241 ± 0.0156 µg/mL
same,24 Hr HIV-1 IC50,HIV-1 [7]; 24 hr prior to infection,0.0228 ± 0.0122 µg/mL
inulin,effect on Gv growth in probiotic-prebiotic-Gv co-culture,Gardnerella vaginalis,increase of Gv growth
"Cc1nnc(C(=O)NC(C)(C)c2nc(C(=O)NCc3ccc(F)cc3)c(O)c(=O)n2C)o1 [RAL, Raltegravir]",interaction with Q-GRFT against HIV-1,HIV-1 [1],synergistic interactions
